In the supplement of paper PMC12076712:
Each block holds one compound with its values, some of them ahead of it.

Tests used:
Assay in all cases: pIC50, kinobeads binding competition
ACVR2B = ACVR2B (UniProt Q13705)
Summary of the method: (§1)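 Either living Jurkat cells (60 min at 37 °C, then lysis) or lysates (60 min at 4 °C) were treated with nine compound concentrations from a top of 30 μM, in 1:4 steps for cells and 1:5 steps for lysates. The lysates were from Jurkat cells or a 1:1:1:1 mix of HEK293, K-562, HepG2 and placenta. Kinobeads-bound proteins were digested and quantified by TMT10 LC-MS/MS. pIC50 was calculated by logistic dose-response fitting (R drc package) of fold changes relative to vehicle, in biological duplicates.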

FGFR2 = FGFR2 (UniProt P21802); conditions: cell material: Lysate mix
FGFR2, sequence (P21802 whole entry, looked up): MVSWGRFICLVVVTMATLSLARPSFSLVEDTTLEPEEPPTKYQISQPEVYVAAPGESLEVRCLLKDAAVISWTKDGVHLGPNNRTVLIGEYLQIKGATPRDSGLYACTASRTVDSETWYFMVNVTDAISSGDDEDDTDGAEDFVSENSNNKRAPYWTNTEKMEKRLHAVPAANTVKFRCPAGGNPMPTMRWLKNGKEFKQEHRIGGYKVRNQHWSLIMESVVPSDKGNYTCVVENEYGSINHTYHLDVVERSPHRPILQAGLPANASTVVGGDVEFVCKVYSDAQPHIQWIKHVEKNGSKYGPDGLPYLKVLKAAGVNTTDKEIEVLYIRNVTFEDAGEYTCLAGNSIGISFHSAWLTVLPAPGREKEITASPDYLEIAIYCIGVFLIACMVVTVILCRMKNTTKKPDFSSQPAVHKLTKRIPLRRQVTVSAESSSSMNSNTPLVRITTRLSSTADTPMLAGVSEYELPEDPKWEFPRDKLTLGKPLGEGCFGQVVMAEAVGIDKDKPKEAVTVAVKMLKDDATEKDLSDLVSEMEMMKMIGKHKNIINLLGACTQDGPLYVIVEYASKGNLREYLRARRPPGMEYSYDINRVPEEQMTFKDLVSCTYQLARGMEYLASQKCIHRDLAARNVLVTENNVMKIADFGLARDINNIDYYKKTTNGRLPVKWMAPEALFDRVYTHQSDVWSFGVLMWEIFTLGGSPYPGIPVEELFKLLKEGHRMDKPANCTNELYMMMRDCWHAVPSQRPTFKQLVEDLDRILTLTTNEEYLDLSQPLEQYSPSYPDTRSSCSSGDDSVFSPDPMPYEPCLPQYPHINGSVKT
Summary of the method: as §1

Fyn = Fyn (UniProt P06241)
Fyn, sequence (P06241 whole entry, looked up): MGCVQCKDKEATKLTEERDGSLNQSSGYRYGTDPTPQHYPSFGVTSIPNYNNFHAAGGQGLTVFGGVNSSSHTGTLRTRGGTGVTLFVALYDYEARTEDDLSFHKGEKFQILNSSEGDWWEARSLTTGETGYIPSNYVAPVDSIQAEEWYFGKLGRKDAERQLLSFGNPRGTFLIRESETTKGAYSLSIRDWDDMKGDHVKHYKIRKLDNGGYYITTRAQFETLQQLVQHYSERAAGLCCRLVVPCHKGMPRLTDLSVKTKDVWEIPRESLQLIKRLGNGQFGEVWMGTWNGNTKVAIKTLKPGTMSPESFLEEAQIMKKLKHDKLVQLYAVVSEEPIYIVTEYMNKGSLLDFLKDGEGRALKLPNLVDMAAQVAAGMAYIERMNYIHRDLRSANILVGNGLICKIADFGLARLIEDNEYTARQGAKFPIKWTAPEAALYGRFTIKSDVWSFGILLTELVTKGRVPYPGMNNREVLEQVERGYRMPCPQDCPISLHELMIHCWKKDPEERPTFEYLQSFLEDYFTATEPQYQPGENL
Summary of the method: as §1

IRAK1 = IRAK1 (UniProt P51617)
IRAK1, sequence (P51617 whole entry, looked up): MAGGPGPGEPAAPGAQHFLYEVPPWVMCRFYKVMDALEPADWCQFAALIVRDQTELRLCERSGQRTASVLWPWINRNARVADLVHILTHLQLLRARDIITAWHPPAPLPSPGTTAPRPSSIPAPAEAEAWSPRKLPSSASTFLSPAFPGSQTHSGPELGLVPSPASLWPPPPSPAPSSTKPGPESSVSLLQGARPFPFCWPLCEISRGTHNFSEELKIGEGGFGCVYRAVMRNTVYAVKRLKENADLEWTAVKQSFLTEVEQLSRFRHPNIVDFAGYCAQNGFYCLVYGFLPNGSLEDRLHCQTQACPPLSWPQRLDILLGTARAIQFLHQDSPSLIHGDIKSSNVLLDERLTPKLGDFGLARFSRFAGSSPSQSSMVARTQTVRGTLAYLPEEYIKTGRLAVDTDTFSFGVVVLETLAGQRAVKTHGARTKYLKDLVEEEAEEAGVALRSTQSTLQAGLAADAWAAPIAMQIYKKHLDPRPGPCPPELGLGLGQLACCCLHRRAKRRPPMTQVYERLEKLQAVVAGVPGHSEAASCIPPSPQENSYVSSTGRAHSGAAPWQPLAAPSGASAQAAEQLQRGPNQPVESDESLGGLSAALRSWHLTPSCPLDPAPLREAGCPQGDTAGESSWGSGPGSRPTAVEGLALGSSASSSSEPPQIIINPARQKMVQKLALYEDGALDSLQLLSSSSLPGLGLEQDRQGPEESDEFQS
Summary of the method: as §1

MARK2 = MARK2 (UniProt Q7KZI7)
MARK2, sequence (Q7KZI7 whole entry): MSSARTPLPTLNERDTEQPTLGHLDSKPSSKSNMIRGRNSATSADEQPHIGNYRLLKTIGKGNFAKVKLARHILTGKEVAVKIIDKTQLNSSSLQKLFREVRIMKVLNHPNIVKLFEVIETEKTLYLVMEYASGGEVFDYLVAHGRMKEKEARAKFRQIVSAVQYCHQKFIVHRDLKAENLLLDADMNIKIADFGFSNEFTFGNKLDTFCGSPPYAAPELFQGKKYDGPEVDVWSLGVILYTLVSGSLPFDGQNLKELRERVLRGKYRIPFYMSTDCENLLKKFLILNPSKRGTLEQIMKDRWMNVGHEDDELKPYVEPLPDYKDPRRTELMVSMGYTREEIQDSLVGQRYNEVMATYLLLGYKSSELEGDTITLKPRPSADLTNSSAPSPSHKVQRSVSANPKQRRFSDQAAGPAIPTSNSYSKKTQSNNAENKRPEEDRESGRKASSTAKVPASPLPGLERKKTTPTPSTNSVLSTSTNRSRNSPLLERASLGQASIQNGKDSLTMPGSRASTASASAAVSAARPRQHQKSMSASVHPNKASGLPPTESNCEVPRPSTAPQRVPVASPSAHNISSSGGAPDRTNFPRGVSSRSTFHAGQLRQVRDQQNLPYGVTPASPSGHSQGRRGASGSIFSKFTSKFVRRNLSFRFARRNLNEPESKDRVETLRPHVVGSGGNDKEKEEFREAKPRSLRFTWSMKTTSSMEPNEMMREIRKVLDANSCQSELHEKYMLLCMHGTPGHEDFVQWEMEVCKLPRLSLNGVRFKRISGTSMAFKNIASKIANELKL
Summary of the method: as §1

MAST4 = MAST4 (UniProt O15021)
Summary of the method: as §1

PLK1 = PLK1 (UniProt P53350)
Summary of the method: as §1

TAOK1 = target: T1, TAOK1 (UniProt Q7L7X3)
T1 sequence (whole entry): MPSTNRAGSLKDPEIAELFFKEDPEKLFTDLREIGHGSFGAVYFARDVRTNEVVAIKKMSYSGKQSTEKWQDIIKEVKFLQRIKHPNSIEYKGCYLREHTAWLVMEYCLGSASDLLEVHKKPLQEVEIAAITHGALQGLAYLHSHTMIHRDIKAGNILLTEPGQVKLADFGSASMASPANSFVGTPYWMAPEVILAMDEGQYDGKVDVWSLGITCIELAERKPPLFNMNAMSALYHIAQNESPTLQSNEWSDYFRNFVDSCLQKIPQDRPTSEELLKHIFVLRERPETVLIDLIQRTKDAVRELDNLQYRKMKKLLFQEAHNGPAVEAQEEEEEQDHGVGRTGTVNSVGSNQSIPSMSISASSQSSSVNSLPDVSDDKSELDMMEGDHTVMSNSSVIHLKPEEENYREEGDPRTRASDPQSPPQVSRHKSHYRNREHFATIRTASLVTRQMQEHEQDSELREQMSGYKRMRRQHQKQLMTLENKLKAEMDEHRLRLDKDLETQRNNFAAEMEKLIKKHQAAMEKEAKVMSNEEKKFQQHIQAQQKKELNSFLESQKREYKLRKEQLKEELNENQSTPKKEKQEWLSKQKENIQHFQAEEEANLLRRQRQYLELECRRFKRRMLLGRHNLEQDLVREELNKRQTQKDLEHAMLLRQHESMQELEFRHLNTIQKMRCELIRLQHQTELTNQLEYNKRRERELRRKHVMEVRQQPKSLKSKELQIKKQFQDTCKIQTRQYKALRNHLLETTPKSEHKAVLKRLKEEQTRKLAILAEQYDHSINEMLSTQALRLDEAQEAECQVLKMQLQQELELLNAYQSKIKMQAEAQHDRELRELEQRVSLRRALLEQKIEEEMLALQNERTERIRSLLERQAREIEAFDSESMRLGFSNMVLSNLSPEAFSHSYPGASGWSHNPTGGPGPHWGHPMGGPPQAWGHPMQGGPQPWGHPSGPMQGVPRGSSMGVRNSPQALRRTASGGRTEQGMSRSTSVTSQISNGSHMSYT
Summary of the method: as §1

UniProt O14920 = target: T2, UniProt O14920
T2 sequence (whole entry): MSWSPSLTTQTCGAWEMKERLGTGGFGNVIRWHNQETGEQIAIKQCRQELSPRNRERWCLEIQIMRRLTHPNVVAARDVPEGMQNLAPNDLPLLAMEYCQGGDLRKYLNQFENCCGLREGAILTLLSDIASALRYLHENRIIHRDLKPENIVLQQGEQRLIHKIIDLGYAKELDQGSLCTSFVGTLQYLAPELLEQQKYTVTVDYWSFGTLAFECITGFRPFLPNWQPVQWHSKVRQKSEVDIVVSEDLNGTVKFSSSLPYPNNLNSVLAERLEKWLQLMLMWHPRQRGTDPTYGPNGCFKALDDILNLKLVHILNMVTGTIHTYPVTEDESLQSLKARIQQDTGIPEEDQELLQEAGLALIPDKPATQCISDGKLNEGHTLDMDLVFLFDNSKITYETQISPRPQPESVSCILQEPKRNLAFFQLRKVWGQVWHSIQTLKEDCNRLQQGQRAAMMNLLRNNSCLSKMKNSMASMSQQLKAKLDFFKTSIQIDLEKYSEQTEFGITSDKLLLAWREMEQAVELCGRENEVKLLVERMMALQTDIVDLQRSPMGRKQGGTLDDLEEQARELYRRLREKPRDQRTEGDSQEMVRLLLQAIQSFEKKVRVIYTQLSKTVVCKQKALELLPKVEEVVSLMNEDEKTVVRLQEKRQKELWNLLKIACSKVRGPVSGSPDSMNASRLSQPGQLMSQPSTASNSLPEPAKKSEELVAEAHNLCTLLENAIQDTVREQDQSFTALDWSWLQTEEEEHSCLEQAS
Summary of the method: as §1

UniProt O94804 = target: UniProt O94804
Summary of the method: as §1

UniProt P27448 = target: UniProt P27448
UniProt P27448, sequence (P27448 whole entry, looked up): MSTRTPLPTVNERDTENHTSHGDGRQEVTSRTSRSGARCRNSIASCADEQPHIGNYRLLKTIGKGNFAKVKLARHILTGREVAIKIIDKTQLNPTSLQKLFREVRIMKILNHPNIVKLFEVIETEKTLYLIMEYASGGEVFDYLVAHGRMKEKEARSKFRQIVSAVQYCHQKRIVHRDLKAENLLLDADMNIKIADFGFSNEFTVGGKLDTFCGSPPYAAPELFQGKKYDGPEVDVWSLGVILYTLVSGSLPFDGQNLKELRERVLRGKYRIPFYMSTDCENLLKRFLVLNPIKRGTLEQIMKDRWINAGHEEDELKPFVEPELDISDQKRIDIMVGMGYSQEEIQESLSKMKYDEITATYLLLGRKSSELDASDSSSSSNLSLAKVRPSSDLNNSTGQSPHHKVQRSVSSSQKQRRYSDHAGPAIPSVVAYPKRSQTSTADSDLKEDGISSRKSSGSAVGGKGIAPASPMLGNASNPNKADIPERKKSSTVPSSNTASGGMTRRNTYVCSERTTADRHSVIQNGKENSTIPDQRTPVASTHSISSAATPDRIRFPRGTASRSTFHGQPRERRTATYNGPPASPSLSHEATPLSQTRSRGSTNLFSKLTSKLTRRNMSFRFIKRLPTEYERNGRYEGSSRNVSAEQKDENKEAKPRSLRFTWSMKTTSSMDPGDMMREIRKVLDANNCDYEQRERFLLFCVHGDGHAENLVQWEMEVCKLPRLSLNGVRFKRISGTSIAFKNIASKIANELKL
Summary of the method: as §1

UniProt P28482 = target: UniProt P28482
UniProt P28482, sequence (P28482 whole entry): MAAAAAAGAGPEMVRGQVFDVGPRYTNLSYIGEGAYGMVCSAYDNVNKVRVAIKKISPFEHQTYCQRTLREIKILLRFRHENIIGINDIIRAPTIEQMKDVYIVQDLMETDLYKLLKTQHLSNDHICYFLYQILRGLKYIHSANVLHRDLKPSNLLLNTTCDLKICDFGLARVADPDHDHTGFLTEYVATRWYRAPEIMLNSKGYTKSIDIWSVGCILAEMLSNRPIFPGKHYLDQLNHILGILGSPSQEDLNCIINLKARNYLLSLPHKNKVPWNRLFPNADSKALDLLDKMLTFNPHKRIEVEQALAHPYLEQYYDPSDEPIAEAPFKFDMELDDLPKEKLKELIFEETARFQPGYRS
Summary of the method: as §1

UniProt P48729 = target: UniProt P48729
UniProt P48729, sequence (P48729 whole entry, looked up): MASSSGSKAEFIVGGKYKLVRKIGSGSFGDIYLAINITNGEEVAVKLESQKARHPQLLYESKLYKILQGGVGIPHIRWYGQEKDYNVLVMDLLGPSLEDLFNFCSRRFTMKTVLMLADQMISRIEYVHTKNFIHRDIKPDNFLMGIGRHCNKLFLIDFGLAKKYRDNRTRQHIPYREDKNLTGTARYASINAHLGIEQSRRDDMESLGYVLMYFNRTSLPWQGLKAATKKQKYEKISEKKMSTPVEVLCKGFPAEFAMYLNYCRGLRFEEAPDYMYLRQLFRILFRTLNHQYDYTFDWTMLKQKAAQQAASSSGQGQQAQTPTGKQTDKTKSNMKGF
Summary of the method: as §1

UniProt P49840 = target: UniProt P49840
Summary of the method: as §1

UniProt P68400 = target: UniProt P68400
Summary of the method: as §1

UniProt Q00536 = target: UniProt Q00536
Summary of the method: as §1

UniProt Q05397 = target: UniProt Q05397
Summary of the method: as §1

UniProt Q13233 = target: UniProt Q13233
Summary of the method: as §1

UniProt Q9Y2I7 = target: UniProt Q9Y2I7
Summary of the method: as §1

ACVR2B, sequence (Q13705 whole entry): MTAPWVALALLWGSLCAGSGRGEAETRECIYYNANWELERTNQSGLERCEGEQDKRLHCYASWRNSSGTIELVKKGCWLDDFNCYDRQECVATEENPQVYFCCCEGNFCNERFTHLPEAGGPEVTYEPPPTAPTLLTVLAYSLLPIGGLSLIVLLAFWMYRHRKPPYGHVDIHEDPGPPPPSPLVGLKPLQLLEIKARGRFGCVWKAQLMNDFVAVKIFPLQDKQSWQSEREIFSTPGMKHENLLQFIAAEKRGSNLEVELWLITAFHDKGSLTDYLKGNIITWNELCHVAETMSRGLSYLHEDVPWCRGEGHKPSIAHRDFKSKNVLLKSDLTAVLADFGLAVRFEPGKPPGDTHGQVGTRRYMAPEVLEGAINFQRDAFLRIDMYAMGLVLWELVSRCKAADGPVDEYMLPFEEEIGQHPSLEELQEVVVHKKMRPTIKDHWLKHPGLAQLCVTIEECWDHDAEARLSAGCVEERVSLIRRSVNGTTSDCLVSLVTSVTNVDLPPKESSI

- pIC50 (ACVR2B; cell material: Lysate mix): < 4.52
- pIC50 (FGFR2): < 4.52
- pIC50 (Fyn; cell material: Lysate mix): 4.58
- pIC50 (IRAK1; cell material: Lysate mix): < 4.52
- pIC50 (MARK2; cell material: Lysate mix): < 4.52
- pIC50 (MAST4; cell material: Lysate mix): 4.74
- pIC50 (PLK1; cell material: Lysate mix): < 4.52
- pIC50 (TAOK1; cell material: Lysate mix): 5.87
- pIC50 (UniProt O14920; cell material: Lysate mix): < 4.52
- pIC50 (UniProt O94804; cell material: Lysate mix): < 4.52
- pIC50 (UniProt P27448; cell material: Lysate mix): < 4.52
- pIC50 (UniProt P28482; cell material: Lysate mix): < 4.52
- pIC50 (UniProt P48729; cell material: Lysate mix): < 4.52
- pIC50 (UniProt P49840; cell material: Lysate mix): < 4.52
- pIC50 (UniProt P68400; cell material: Lysate mix): < 4.52
- pIC50 (UniProt Q00536; cell material: Lysate mix): < 4.52
- pIC50 (UniProt Q05397; cell material: Lysate mix): < 4.52
- pIC50 (UniProt Q13233; cell material: Lysate mix): < 4.52
- pIC50 (UniProt Q9Y2I7; cell material: Lysate mix): < 4.52
Structure (SMILES): Cc1cc(Nc2cc(C(=O)NCCNC(=O)OC3CC/C=C/CCC3)nc(N3CCN(Cc4ccc(S(=O)(=O)F)cc4)CC3)n2)n[nH]1 (centres undefined)

- pIC50 (ACVR2B; cell material: Lysate mix): < 4.52
- pIC50 (FGFR2): < 4.52
- pIC50 (Fyn; cell material: Lysate mix): 5.93
- pIC50 (IRAK1; cell material: Lysate mix): 5.11
- pIC50 (MARK2; cell material: Lysate mix): < 4.52
- pIC50 (MAST4; cell material: Lysate mix): 6.06
- pIC50 (PLK1; cell material: Lysate mix): < 4.52
- pIC50 (TAOK1; cell material: Lysate mix): < 4.52
- pIC50 (UniProt O14920; cell material: Lysate mix): < 4.52
- pIC50 (UniProt O94804; cell material: Lysate mix): < 4.52
- pIC50 (UniProt P27448; cell material: Lysate mix): < 4.52
- pIC50 (UniProt P28482; cell material: Lysate mix): < 4.52
- pIC50 (UniProt P48729; cell material: Lysate mix): < 4.52
- pIC50 (UniProt P49840; cell material: Lysate mix): < 4.52
- pIC50 (UniProt P68400; cell material: Lysate mix): 4.89
- pIC50 (UniProt Q00536; cell material: Lysate mix): < 4.52
- pIC50 (UniProt Q05397; cell material: Lysate mix): < 4.52
- pIC50 (UniProt Q13233; cell material: Lysate mix): < 4.52
- pIC50 (UniProt Q9Y2I7; cell material: Lysate mix): < 4.52
Structure (SMILES): C#CCNC(=O)c1cc(Nc2cc(C)[nH]n2)nc(N2CCN(Cc3ccc(S(=O)(=O)F)cc3)CC2)n1

- pIC50 (ACVR2B; cell material: Jurkat cells): < 4.52
- pIC50 (ACVR2B; cell material: Jurkat lysate): < 4.52
- pIC50 (ACVR2B; cell material: Lysate mix): < 4.52
- pIC50 (FGFR2): < 4.52
- pIC50 (Fyn; cell material: Jurkat cells): 5.1
- pIC50 (Fyn; cell material: Jurkat lysate): < 4.52
- pIC50 (Fyn; cell material: Lysate mix): < 4.52
- pIC50 (IRAK1; cell material: Jurkat cells): 5.53
- pIC50 (IRAK1; cell material: Jurkat lysate): < 4.52
- pIC50 (MARK2; cell material: Jurkat cells): 5.04
- pIC50 (MARK2; cell material: Jurkat lysate): < 4.52
- pIC50 (MARK2; cell material: Lysate mix): < 4.52
- pIC50 (MAST4; cell material: Jurkat cells): 6.3
- pIC50 (MAST4; cell material: Jurkat lysate): 5.17
- pIC50 (MAST4; cell material: Lysate mix): 5.3
- pIC50 (PLK1; cell material: Jurkat cells): 5.85
- pIC50 (PLK1; cell material: Jurkat lysate): < 4.52
- pIC50 (PLK1; cell material: Lysate mix): < 4.52
- pIC50 (TAOK1; cell material: Jurkat cells): 5.96
- pIC50 (TAOK1; cell material: Jurkat lysate): 5.65
- pIC50 (TAOK1; cell material: Lysate mix): 6.1
- pIC50 (UniProt O14920; cell material: Jurkat cells): < 4.52
- pIC50 (UniProt O14920; cell material: Jurkat lysate): < 4.52
- pIC50 (UniProt O14920; cell material: Lysate mix): < 4.52
- pIC50 (UniProt O94804; cell material: Jurkat cells): < 4.52
- pIC50 (UniProt O94804; cell material: Jurkat lysate): < 4.52
- pIC50 (UniProt O94804; cell material: Lysate mix): < 4.52
- pIC50 (UniProt P27448; cell material: Jurkat lysate): < 4.52
- pIC50 (UniProt P27448; cell material: Lysate mix): < 4.52
- pIC50 (UniProt P28482; cell material: Jurkat cells): < 4.52
- pIC50 (UniProt P28482; cell material: Jurkat lysate): < 4.52
- pIC50 (UniProt P28482; cell material: Lysate mix): < 4.52
- pIC50 (UniProt P48729; cell material: Jurkat lysate): < 4.52
- pIC50 (UniProt P48729; cell material: Lysate mix): < 4.52
- pIC50 (UniProt P49840; cell material: Jurkat cells): < 4.52
- pIC50 (UniProt P49840; cell material: Jurkat lysate): < 4.52
- pIC50 (UniProt P49840; cell material: Lysate mix): < 4.52
- pIC50 (UniProt P68400; cell material: Jurkat lysate): < 4.52
- pIC50 (UniProt P68400; cell material: Lysate mix): < 4.52
- pIC50 (UniProt Q00536; cell material: Jurkat cells): 5.85
- pIC50 (UniProt Q00536; cell material: Jurkat lysate): < 4.52
- pIC50 (UniProt Q00536; cell material: Lysate mix): < 4.52
- pIC50 (UniProt Q05397; cell material: Jurkat cells): < 4.52
- pIC50 (UniProt Q05397; cell material: Jurkat lysate): < 4.52
- pIC50 (UniProt Q05397; cell material: Lysate mix): < 4.52
- pIC50 (UniProt Q13233; cell material: Jurkat cells): < 4.52
- pIC50 (UniProt Q13233; cell material: Jurkat lysate): < 4.52
- pIC50 (UniProt Q13233; cell material: Lysate mix): < 4.52
- pIC50 (UniProt Q9Y2I7; cell material: Jurkat cells): < 4.52
- pIC50 (UniProt Q9Y2I7; cell material: Jurkat lysate): < 4.52
- pIC50 (UniProt Q9Y2I7; cell material: Lysate mix): < 4.52
Structure (SMILES): O=C(NCCNC(=O)c1cc(Nc2cc(C3CC3)[nH]n2)nc(N2CCN(Cc3ccc(S(=O)(=O)F)cc3)CC2)n1)OC1CC/C=C/CCC1 (centres undefined)
